Each block holds one compound with its values, some of them ahead of it. Calls of active or inactive are those of the source.
Columns and labels:
Fatty acid synthase [1] = target: T1, Fatty acid synthase (Homo sapiens, UniProt P49327); experiment: FAS thioesterase domain inhibitors, dose response, biochemical, kinetic fluorescence intensity (AID 624326); assay type: functional;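 also: rate of fluorescence rise from hydrolysis of a fluorogenic O-methyl fluorescein ester substrate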
Fatty acid synthase [2] = target: T1, Fatty acid synthase; experiment: FAS thioesterase domain inhibitors, dose response, biochemical, endpoint fluorescence intensity, uHTS hits (AID 624327); assay type: functional;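 also: fluorescence from hydrolysis of an O-methyl fluorescein acyl ester substrate by the enzyme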
[3] = target: Photoreceptor-specific nuclear receptor (Homo sapiens, UniProt Q9Y5X4); assay type: functional, cell-based;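 also: CHO-S cells with Gal4-NCOR and VP16-NR2E3 two-hybrid luciferase reporter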
[4] = Luminescence Cell-Based Dose Retest to Confirm Inhibitors of Cancer Stem Cells. [Related pubchem assays (depositor defined):AID2717, AID2721]; assay type: functional; details: Homo sapiens
[5] = cytotoxicity in HMLE control line with eGFP shRNA, dose response, counter-screen for HMLE_sh_ECad selective toxicity project, cell-based, HMLE_sh_eGFP, luminescence (AID 463074); assay type: functional, Homo sapiens;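 also: HMLE human mammary epithelial cells expressing control shRNA against eGFP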
[6] = target: T2, Corticotropin-releasing factor receptor 2/Corticotropin-releasing factor-binding protein (Homo sapiens, UniProt P24387+Q13324); experiment: activators of CRF receptor 2 with binding protein – uHTS hits, confirmation (AID 602473); assay type: functional; details: read-out: EC50_Mean
T2 sequence (Q13324 whole entry): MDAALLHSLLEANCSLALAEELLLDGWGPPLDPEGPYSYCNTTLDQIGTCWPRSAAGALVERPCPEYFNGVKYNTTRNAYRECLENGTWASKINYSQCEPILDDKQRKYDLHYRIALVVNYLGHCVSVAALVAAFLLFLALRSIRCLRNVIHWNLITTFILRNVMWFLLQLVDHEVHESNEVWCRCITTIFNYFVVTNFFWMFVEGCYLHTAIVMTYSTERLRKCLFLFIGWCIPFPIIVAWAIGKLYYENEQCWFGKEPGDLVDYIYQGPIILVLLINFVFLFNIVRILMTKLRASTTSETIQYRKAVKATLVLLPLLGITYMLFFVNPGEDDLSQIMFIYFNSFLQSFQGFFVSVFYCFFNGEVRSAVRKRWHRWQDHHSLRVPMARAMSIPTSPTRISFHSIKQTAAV
T2 sequence (P24387 whole entry): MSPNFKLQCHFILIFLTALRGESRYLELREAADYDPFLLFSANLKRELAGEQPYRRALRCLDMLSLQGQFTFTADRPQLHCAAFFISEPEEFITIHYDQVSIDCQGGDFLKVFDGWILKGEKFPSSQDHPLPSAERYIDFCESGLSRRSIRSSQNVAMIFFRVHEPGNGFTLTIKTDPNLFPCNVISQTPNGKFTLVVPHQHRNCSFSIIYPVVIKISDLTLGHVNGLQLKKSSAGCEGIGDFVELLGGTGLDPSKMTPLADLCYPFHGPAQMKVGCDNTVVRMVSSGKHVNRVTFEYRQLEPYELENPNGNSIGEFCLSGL

[7] = CRF-BP/CRF-R2 complex antagonists, dose response, cell-based, uHTS hits, 384-well (AID 651639); assay type: functional, Homo sapiens; details: read-out: IC50_Mean
[8] = target: T2, Corticotropin-releasing factor receptor 2/Corticotropin-releasing factor-binding protein; experiment: Dose Response confirmation of uHTS hits for small molecule antagonists of the CRF-binding protein and CRF-R2 receptor complex.; assay type: functional; details: read-out: IC50_Mean
[9] = target: T3, DNA repair and recombination protein RAD54-like (Homo sapiens, UniProt Q92698); experiment: inhibitors of human RAD54 branch migration, confirmation, biochemical, fluorescence, cherry-picked samples, dose series (AID 651657); assay type: functional
T3 sequence (Q92698 whole entry): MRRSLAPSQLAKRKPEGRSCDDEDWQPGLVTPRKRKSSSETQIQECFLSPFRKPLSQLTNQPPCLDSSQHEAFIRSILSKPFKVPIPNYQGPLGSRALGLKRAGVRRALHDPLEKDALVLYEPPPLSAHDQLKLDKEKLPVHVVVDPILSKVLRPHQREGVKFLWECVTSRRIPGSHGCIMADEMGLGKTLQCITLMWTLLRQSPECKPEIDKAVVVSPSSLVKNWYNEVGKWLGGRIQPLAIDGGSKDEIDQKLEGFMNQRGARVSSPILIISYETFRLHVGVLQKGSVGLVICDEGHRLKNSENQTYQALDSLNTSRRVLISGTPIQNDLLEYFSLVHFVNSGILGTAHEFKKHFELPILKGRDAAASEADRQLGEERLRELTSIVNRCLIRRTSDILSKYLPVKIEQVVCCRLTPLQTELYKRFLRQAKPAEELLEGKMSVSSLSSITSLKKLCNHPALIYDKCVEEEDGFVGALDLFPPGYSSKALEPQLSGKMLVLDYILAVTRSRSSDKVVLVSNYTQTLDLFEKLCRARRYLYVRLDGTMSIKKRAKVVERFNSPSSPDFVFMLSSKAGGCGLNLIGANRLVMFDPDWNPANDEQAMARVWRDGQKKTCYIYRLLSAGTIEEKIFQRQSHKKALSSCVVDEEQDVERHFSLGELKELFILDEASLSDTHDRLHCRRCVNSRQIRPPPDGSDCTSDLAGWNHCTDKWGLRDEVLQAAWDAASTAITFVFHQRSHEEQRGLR

[10] = target: T4, Tyrosine-protein phosphatase non-receptor type 5 (Homo sapiens, UniProt P54829); experiment: STEP phosphatase inhibitors, confirmation, biochemical, fluorescence intensity, uHTS hits (AID 602372); assay type: functional; details: read-out: IC50_Mean
T4 sequence (P54829 whole entry): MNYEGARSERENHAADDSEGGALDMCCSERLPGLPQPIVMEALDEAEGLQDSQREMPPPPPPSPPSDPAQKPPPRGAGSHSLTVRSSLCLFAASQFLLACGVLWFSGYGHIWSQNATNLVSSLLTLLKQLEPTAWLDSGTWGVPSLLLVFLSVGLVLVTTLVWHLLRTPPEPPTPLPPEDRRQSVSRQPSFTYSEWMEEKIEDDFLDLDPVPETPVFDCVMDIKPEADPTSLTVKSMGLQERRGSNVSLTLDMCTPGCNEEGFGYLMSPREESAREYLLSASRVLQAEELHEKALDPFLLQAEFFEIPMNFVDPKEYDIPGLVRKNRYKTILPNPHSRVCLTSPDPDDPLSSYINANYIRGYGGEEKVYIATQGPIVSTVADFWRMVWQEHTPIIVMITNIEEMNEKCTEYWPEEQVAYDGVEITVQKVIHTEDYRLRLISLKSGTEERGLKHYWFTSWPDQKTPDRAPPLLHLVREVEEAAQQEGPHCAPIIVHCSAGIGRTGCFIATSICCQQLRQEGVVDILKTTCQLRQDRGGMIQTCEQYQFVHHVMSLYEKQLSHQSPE

[11] = target: T5, Tyrosine-protein phosphatase non-receptor type 11 (Homo sapiens, UniProt Q06124); experiment: SHP2 phosphatase inhibition, dose response, selectivity assay for STEP inhibitor project, biochemical (AID 602367); assay type: functional; details: read-out: IC50_Mean
T5 sequence (Q06124 whole entry): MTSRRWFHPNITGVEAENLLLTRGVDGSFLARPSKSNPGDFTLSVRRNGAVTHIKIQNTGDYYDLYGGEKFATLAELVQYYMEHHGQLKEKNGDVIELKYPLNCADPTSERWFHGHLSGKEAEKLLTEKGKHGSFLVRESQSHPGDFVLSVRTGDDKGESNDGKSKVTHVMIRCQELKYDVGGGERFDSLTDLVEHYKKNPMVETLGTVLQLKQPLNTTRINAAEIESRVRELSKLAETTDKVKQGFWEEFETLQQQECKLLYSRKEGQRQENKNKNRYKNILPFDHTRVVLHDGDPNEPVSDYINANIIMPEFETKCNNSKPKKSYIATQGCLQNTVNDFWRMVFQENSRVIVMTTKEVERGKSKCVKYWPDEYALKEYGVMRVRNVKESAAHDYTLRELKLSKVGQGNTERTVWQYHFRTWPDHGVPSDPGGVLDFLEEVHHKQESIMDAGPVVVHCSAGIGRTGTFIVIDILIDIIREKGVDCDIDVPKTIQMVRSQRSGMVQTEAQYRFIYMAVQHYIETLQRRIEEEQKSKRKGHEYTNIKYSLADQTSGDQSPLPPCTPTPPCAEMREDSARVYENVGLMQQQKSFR

[12] = target: Dual specificity protein phosphatase 3 (Homo sapiens, UniProt P51452); experiment: VHR phosphatase inhibition, dose response, selectivity assay for STEP inhibitor project, biochemical (AID 602374); assay type: functional; details: read-out: IC50_Mean
[13] = target: Eukaryotic translation initiation factor 4E (Mus musculus, UniProt P63073); experiment: eIF4E–eIF4G protein interaction inhibitors, dose response, biochemical, TR-FRET (AID 855); assay type: functional;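 also: potency for disrupting eIF4E binding to eIF4GI seen as loss of FRET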
[14] = NIH-3T3 fibroblast cytotoxicity, dose response, cytotoxicity control, cell-based, fluorescence, Alamar Blue, secondary assay (AID 2327); assay type: functional;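 also: NIH-3T3 mouse fibroblasts cultured with fluconazole at 8 µg/mL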
[15] = C. albicans growth with fluconazole, confirmation, fluorescence, retest (AID 2467); assay type: functional, cell-based
[16] = intracellular Trypanosoma cruzi inhibitors in host cells – cell-based, plate reader, cherry-pick samples, set 3, dose response (AID 651818); assay type: functional;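 also: compounds incubated with infected cells for about four days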
[17] = target: T6, Histone-lysine N-methyltransferase NSD2 (Homo sapiens, UniProt O96028); assay type: biochemical
T6 sequence (O96028 whole entry): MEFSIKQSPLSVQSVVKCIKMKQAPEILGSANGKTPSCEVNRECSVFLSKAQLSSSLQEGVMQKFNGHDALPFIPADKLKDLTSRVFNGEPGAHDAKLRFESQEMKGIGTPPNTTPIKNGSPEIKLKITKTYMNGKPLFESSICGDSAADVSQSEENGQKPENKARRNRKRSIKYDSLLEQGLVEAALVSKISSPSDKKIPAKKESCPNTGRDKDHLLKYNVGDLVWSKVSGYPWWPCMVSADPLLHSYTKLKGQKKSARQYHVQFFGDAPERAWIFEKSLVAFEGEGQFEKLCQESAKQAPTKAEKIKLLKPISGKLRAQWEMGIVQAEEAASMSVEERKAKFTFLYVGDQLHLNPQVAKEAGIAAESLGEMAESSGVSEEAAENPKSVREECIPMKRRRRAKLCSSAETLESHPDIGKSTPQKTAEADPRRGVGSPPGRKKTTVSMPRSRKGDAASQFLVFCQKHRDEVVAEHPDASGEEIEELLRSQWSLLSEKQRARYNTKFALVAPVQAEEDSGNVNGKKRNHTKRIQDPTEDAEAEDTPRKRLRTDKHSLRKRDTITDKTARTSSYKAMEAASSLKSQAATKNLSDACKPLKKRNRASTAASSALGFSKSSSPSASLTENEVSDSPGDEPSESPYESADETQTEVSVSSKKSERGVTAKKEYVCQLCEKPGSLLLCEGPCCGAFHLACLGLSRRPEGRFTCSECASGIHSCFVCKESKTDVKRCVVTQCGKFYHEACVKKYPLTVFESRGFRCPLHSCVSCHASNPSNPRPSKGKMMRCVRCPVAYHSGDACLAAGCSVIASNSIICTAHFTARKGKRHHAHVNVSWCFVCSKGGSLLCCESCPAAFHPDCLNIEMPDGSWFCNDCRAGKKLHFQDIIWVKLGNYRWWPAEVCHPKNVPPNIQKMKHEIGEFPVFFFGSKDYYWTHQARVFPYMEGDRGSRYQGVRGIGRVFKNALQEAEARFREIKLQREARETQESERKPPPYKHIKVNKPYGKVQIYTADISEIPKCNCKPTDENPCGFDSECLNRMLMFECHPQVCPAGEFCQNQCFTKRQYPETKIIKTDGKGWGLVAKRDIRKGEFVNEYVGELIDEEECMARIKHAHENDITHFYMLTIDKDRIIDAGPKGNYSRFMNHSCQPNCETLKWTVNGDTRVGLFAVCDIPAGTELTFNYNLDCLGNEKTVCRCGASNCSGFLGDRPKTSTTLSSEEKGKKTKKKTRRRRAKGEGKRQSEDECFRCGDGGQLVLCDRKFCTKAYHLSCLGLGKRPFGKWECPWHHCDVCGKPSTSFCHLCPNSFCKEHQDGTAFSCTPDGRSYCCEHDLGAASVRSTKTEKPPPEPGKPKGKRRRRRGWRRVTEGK

T1 sequence (P49327 whole entry, the tested form may be a part): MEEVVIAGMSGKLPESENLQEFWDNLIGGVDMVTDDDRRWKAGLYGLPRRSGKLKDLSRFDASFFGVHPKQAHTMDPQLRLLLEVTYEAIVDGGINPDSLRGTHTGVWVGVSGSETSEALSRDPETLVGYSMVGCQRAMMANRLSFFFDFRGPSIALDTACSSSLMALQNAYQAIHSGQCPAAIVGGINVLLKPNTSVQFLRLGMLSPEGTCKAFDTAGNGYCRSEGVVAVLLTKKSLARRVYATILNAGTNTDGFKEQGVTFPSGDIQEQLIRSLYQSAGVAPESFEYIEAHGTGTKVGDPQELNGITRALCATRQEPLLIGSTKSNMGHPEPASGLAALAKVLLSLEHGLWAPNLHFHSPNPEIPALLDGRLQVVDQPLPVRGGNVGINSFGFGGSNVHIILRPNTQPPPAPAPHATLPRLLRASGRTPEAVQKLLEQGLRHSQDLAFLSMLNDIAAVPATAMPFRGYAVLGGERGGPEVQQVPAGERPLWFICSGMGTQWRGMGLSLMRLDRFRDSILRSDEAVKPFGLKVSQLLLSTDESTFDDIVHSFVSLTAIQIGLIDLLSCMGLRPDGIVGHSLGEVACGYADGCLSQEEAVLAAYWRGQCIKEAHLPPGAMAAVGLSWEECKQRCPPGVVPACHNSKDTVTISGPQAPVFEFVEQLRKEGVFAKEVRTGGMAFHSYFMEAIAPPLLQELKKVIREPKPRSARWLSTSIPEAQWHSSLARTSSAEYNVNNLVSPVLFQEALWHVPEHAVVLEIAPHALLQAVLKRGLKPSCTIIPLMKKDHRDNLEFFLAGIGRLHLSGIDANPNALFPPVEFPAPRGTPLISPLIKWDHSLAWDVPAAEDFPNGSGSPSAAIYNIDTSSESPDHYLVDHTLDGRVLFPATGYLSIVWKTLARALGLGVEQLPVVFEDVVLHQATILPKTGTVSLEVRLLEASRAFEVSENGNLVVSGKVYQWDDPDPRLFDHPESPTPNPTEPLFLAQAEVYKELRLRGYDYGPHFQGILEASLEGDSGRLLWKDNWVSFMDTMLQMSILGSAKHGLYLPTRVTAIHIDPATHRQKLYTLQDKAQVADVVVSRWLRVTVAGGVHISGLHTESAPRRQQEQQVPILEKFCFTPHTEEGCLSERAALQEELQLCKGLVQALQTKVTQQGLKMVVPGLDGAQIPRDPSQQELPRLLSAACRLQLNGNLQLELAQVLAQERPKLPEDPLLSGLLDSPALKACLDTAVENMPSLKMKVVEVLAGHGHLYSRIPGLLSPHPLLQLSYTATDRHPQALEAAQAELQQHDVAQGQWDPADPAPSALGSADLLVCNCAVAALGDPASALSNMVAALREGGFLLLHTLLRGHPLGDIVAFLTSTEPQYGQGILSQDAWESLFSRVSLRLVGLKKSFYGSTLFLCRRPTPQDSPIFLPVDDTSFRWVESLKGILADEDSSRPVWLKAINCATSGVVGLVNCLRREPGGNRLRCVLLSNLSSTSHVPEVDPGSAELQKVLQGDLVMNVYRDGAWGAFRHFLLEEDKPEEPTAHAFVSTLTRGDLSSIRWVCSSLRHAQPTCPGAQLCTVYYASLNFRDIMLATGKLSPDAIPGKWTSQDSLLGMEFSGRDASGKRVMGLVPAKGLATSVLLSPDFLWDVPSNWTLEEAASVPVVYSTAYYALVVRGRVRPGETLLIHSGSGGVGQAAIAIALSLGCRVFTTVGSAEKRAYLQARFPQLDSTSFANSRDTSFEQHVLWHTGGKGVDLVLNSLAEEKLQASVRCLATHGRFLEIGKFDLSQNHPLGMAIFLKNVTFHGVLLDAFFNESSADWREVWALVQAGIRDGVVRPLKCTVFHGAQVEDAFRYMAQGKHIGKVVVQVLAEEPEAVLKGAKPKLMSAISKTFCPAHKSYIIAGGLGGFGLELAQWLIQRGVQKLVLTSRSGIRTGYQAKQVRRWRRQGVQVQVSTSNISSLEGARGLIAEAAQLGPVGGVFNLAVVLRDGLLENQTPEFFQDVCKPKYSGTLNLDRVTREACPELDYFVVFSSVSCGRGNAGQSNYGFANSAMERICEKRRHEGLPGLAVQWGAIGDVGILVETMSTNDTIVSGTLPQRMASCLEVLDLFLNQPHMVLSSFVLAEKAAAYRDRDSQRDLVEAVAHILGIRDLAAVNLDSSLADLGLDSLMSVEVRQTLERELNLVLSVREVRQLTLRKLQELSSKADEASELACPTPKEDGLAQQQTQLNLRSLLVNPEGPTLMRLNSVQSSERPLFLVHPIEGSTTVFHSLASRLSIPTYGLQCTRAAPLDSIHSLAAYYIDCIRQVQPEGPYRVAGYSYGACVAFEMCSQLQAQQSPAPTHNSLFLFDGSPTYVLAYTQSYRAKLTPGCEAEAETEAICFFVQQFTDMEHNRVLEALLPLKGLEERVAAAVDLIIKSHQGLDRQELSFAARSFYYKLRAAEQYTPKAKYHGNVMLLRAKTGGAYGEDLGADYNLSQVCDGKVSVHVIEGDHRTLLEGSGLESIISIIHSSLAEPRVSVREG
Sequence of Photoreceptor-specific nuclear receptor (Q9Y5X4 whole entry, the tested form may be a part): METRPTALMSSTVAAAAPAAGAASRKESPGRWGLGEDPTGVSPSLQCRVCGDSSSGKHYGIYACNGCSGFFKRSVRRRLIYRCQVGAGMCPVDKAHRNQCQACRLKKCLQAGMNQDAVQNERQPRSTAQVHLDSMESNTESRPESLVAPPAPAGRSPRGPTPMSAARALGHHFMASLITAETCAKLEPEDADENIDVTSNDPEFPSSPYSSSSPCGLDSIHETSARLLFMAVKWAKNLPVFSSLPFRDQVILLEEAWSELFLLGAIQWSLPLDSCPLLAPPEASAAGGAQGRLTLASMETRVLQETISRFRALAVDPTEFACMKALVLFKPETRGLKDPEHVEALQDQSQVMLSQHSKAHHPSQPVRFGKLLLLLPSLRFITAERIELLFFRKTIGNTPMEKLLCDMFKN
Sequence of Eukaryotic translation initiation factor 4E (P63073 whole entry): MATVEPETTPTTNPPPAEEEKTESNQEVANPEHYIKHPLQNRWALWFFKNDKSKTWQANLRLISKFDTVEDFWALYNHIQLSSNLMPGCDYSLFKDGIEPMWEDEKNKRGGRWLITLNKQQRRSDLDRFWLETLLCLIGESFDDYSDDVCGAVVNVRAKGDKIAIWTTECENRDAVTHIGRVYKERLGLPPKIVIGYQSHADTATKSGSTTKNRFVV
Sequence of Dual specificity protein phosphatase 3 (P51452 whole entry): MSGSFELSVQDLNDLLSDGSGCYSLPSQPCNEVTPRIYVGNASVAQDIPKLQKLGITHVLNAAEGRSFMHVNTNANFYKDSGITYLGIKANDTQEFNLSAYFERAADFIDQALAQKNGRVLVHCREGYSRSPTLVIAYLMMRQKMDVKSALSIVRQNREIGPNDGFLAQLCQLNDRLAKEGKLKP

Compound: O=C(COC(=O)c1cc([N+](=O)[O-])ccc1N1CCOCC1)Nc1ccc(Cl)cn1
IC50 (Fatty acid synthase [1]): 6.06 µM (active)
IC50 (Fatty acid synthase [2]): 5.2 µM (active)
IC50 [3]: 1.91 µM (active)
AC50 [4]: 4.89 µM (active)
AC50 [5]: 25.6 µM (active)

EC50 [6]: > 53 µM (inactive)
IC50 [7]: 9.76 µM (active)
IC50 [8]: 4.34 µM (active)
Compound: O=C(O)c1ccc(-n2ncc3c2/C(=C/c2cccc([N+](=O)[O-])c2)CC3)cc1

AC50 [9]: 71.6 µM (active)
Compound: CCCN(CCC)CCCNC(=O)c1cc2c(O)nc3ccccc3c2s1

IC50 [10]: 16.4 µM (active)
IC50 [11]: 1.89 µM (active)
IC50 [12]: 1.12 µM (active)
Compound: COc1ccc(NC(=S)NCCCN2CCCC2)cc1Cl

EC50 [6]: > 53 µM (inactive)
IC50 [13]: > 64 µM (inactive)
IC50 [7]: > 20 µM (inactive)
IC50 [8]: 27.4 µM (active)
Compound: COCC(C)n1c(SCc2ccc(C(=O)OC)o2)nc2ccccc2c1=O (stereo unspecified)

Compound: O=C1/C(=C\c2ccc(Br)cc2)SC(=S)N1NS(=O)(=O)c1ccccc1
EC50 [6]: 36.2 µM (active)
EC50 [14]: 94.2 µM (active)
EC50 [15]: 0.267 µM (active)
IC50 [7]: 17.6 µM (active)
IC50 [8]: 5.5 µM (active)

Compound: C[C@@H]1CN([C@H](C)CO)C(=O)c2cc(N(C)C)ccc2O[C@@H]1CN(C)Cc1ccc(C(=O)Nc2ccccc2N)cc1
AC50 [16]: 3.19 µM (active)

Compound: C[C@@H]1CN([C@H](C)CO)C(=O)c2cccc(NS(=O)(=O)c3ccc(F)cc3)c2O[C@@H]1CN(C)C(=O)Nc1ccc(C(F)(F)F)cc1
AC50 [16]: 4.16 µM (active)

Compound: C[C@@H]1CN([C@@H](C)CO)C(=O)Cc2cc(NC(=O)Nc3ccc(C(F)(F)F)cc3)ccc2O[C@@H]1CN(C)Cc1ccc(C(=O)Nc2ccccc2N)cc1
AC50 [16]: 1.8 µM (active)

AC50 [9]: 25.7 µM (active)
AC50 [17]: > 20 µM (inactive)
Compound: CC(C)NC1CCC(Nc2ccnc3cc(Cl)ccc23)CC1 (stereo unspecified)

Source: ChEMBL document CHEMBL1201862, “PubChem BioAssay data set” (2004)
